Reference: US10280156B2, “Heteroaromatic chalcone derivatives and their medical use” (Medizinische Universität Wien, priority 2014, dated 2019)

How the values were obtained:
MEC1 = experiment: Viability test (CellTiter-Blue/EZ4U) on MEC1 cells, 48 h; assay type: cell-based, human; conditions: Homo sapiens, MEC1, 48 h, 48 h incubation; nd = no significant cytotoxic activity up to 100 μM
Protocol: (§1) JURKAT and CCRF-CEM (T-cell acute lymphoblastic leukemia), HL60 and K562 representing acute and chronic myeloid leukemia, respectively, the chronic lymphocytic leukemia cell line MEC-1, and the diffuse large B-cell lymphoma cell line U-2940 were cultured in Gibco RPMI 1640+GlutaMAX (Life Technologies, Carlsbad, Calif., USA) supplemented with 10% fetal bovine serum gold (FBS gold; PAA Laboratories, Pasching, Austria) and 1% PenStrep (100 U/ml penicillin and 100 μg/ml streptomycin; PAA Laboratories), and maintained at 37° C. in humidified atmosphere with 5% CO2. The diffuse large B-cell lymphoma cell line OCI-LY7 was cultured in Gibco IMDM+GlutaMAX and 25 mM HEPES (Life Technologies) containing 20% FBS gold and 1% PenStrep.
(§2) All experiments with hematological cell lines were done using phenol red-free RPMI 1640+L-glutamine (PAA Laboratories) supplemented with 1% PenStrep and 10% FBS gold, except experiments with OCI-Ly7 which were carried out in Gibco IMEM+GlutaMAX and 25 mM HEPES containing 20% FBS gold and 1% PenStrep. Cells were incubated in triplicates with increasing concentrations of the compounds for 48 h, changes in viability were determined using the cell proliferation and cytotoxicity assays EZ4U (Biomedica Group, Austria) and CellTiter-Blue Cell Viability Assay (Promega, Madison, Wis., USA) following instructions of the manufacturers. IC50 values were calculated from two independent experiments using GraphPad Prism 5 software.
(§3) Initially, compounds were biologically tested in six concentration steps (0.1 μM; 1 μM; 5 μM; 10 μM; 50 μM; and 100 μM) using the CellTiter-Blue Cell Viability Assay (Promega, Madison, Wis., USA) and an incubation time of 48 hours. […] IC50 values were calculated from at least two independent experiments with 3 replicates each. In order to evaluate the biologic activity of the new compounds, cytotoxicity was compared to that of fludarabine, an already approved drug for the treatment of various B-cell malignancies. […] Differences in IC50 values for the different cell types can be explained by the biological and genetic particularities of each subtype of B-cell Non-Hodgkin lymphoma (Stacchini A et al. Leukemia Res 1999, 23, 127-136; Sambade C et al. Int J Cancer 2006, 118, 555-563; Chang H et al. Leukemia lymphoma 1995, 19, 165-171; Tweeddale M E et al. Blood 1987, 69, 1307-1314; Tweeddale M et al. Blood 1989, 74, 572-578).

M2-10B4 = experiment: Viability test on mouse fibroblast cell line M2-10B4, 48 h; assay type: cell-based; conditions: Mus musculus, M210B4, 48 h, 48 h incubation; mouse fibroblast cell line
Protocol: as §2
Structurally seen, the small molecule compound 1 represents a typical chalcone scaffold. It is characterized by an ortho-ethoxy-substituted phenyl part as ring A and a 2-naphthyl moiety symbolizing ring B. The focus of the present study was to guide the systematic identification of a growth inhibitor with specificity to neoplastic cells, as cytotoxicity towards healthy cells is mostly associated with adverse effects, which can be related to morbidity and mortality of the patient (Milligan D W et al. Brit J Haematol 2006, 135, 450-474). To discriminate in vitro between structural elements necessary for potent cytotoxicity towards tumor cells which, at the same time, clearly show less activity on normal cells, the compounds were additionally tested on the murine bone marrow fibroblast cell line M2-10B4. This cell line is regularly used as feeder layer when cultured with patient cells providing additional support and survival signals in particular in drug screens (Kurtova A V et al. Blood 2009, 114, 4441-4450).
as §3

CCRF = experiment: Viability test on CCRF cells; assay type: cell-based, human
Protocol: as §1, with “The diffuse large B-cell lymphoma cell line OCI-LY7 was cultured in Gibco IMDM+GlutaMAX and 25 mM HEPES (Life Technologies) containing 20% FBS gold and 1% PenStrep.” left out
as §2, with “software. […]” for “software.”

[1] = tested on: PBMC of healthy individuals; experiment: Viability of healthy donor cells in suspension culture; assay type: cell-based; conditions: Homo sapiens, 48 h, read-out: IC50 HD Suspension
Text: Hematological cell lines were acquired from the Leibniz Institute DSMZ-German Collection of Microorganisms and Cell Cultures (www.dsmz.de). Sixteen patients diagnosed with chronic lymphocytic leukemia at the Division of Hematology and Hemostaseology at the Vienna General Hospital and four healthy donors were included in the study. All participants signed informed consent according to the Declaration of Helsinki (Ethics Committee Nr: EK 1722/2012). Peripheral blood mononuclear cells (PBMC) were isolated using standardized Ficoll-Hypaque gradient centrifugation (Seromed, Berlin, Germany) and stored in liquid nitrogen until use. […]
Primary cells were incubated at a density of 300,000 cells per well in 96-well plates in a total volume of 100 μl of Gibco RPMI 1640+L-glutamine (PAA Laboratories) supplemented with 20% FBS gold with increasing concentrations of compounds for 48 h. […] Viability was measured using CellTiter-Blue Cell Viability Assay (Promega, Madison, Wis., USA) following the instructions of the manufacturers. Experiments with primary cells were done in triplicates, IC50 values were calculated from the mean values of all samples used in the various experiments using GraphPad Prism 5 software. […]

Compound: CCOc1ccccc1C(=O)/C=C/c1cc2ccccc2[nH]1 [Compound 15, 1-(2-Ethoxyphenyl)-3-(1H-indole-2-yl)-2-propen-1-one]
- IC50 (MEC1): 0.022 µM
- IC50 (M2-10B4): 19.2 µM
- viability, % of control (CCRF; CCRF, at concentrations <1 μM): less than 30 % of control
- IC50 (CCRF; Homo sapiens, T-cell acute leukemia, nd = no significant cytotoxic activity up to 100 μM): 0.03 µM
- IC50 [1]: 13.6 µM
